Test results as given in PubChem BioAssay AID2296 (NMMLSC, 2010).

The compounds below were run against Regulator of G-protein signaling 7 (Homo sapiens) (UniProt P49802) (assay: small molecules altering RGS7 interaction with Galphao – biochemical, multiplexed bead flow cytometry, SAR compounds, SAR follow-up (AID 2296)). Conditions: bead-based flow cytometry, AF488-Galphao binding to RGS7.
Chain of Regulator of G-protein signaling 7 (Homo sapiens) (P49802 whole entry, looked up): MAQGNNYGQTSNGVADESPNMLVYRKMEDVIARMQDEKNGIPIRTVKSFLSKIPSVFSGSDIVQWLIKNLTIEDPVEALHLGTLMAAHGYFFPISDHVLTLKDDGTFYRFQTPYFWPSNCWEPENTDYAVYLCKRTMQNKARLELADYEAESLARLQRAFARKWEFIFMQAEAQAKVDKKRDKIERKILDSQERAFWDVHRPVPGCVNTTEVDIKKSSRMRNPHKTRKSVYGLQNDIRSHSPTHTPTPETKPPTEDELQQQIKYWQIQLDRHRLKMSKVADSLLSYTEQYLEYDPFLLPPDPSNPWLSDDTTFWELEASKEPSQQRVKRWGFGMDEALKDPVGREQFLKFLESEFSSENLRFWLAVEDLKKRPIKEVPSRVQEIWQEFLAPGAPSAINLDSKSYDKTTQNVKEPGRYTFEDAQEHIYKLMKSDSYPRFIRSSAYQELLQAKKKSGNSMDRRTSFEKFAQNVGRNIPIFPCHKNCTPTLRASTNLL

Row | EC50 [nM] | SMILES
1 | 141 | NS(=O)(=O)c1ccc(N/N=C/c2ccc(O)c(O)c2O)c([N+](=O)[O-])c1

Same assay, conditions: bead-based flow cytometry, AF488-Galphao binding to RGS7; measured here: Ki from EC50 fit

Row | Ki [nM] | SMILES
2 | 1870 | Cc1[nH]n(-c2ccccc2)c(=S)c1C=NCCCN=Cc1c(C)[nH]n(-c2ccccc2)c1=S
3 | 120 | Nc1c(C(=O)NCC2CCCO2)sc2nc3c(c(-c4ccco4)c12)CC/C3=C/c1ccco1 (stereo not drawn)
4 | 130 | O=C1C(Cl)=C(N2CCCCC2)C(=O)C(Cl)=C1c1cnc(N2CCCCC2)s1
5 | 360 | O=C(Cc1csc(N2CCOCC2)n1)N/N=C/c1ccc(O)c(O)c1O
6 | 70 | CN1CCN(C2=C(Cl)C(=O)C(c3cnc(N4CCCCC4)s3)=C(Cl)C2=O)CC1
7 | 120 | NS(=O)(=O)c1ccc(N/N=C/c2ccc(O)c(O)c2O)c([N+](=O)[O-])c1
8 | 1600 | CC1(C)OC(=O)C(=Cc2ccc(-c3ccc(S(N)(=O)=O)cc3)o2)C(=O)O1
9 | 380 | CCN=c1scc(C)n1/N=C/c1ccc(O)c(O)c1O
10 | 300 | COc1ccc(C2=CC(=O)C=CC2=O)cc1
11 | 210 | CN=c1scc(C)n1/N=C/c1ccc(O)c(O)c1O
12 | 3750 | CCC(=O)NC(c1ccc(C)cc1)c1cc([N+](=O)[O-])c2cccnc2c1O (stereo not drawn)
13 | 320 | CCN(CC)S(=O)(=O)c1cccc(C(=O)N/N=C/c2ccc(O)c(O)c2O)c1
